Earlier results, collected in patent US6559138B1, “3-Desoxy-vitamin D3 analog esters” (Syntex (U.S.A.) LLC, priority 2001, dated 2003).

How the values were obtained:
[1] = tested on: women with postmenopausal osteoporosis
[2] = tested on: steroid-induced bone loss; details: calcitriol 0.5 to 1.0 micrograms/day plus calcium 1000 mg/day, with or without intranasal calcitonin 400 IU/day

C=C1/C(=C\C=C2/CCC[C@]3(C)[C@@H]([C@H](C)CCCC(C)(C)O)CC[C@@H]23)C[C@@H](O)C[C@@H]1O [calcitriol, 1,25-dihydroxyvitamin D3]
hypercalcaemia ([1]; at recommended dosages): infrequent and mild | lower rate of new vertebral fractures compared with patients receiving elemental calcium 1000 mg/day ([1]; calcitriol 0.25 microgram twice daily, after 3 years of treatment, patients with mild to moderate disease): 3 fold | tolerability ([1]; overall): well tolerated | effect on steroid-induced bone loss [2]: prevented steroid-induced bone loss
